These results are taken from US4990499A, “Anti-herpes simplex virus activity of 5-alkoxymethyl-2'-deoxycytidimes and their 5-monophosphates” (priority 1989, dated 1991).

The structures appear in SMILES notation. pEC50: −log10 of the molar value.

Assay [1] has as its system Deoxynucleoside Triphosphate (dNTP) Pools in Vero Cells Infected with Herpes Simplex Virus Type 1. The assay can be described thus: Deoxynucleoside triphosphate (dNTP) pools in HSV-1 infected Vero cells. It is filed as cell-based. As to conditions: Table 8, HSV-1 KOS infected Vero cells, 10 PFU/cell, treatment 7 hours, ± S.E. Summed up: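 Vero cells infected with HSV-1 KOS at 10 PFU/cell for one hour, then treated for seven hours with dGuo alone or dGuo plus H4 dUrd added right after adsorption. Intracellular dNTP pools then assayed, with untreated Vero cells as control.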

The test system of assay [2] is Herpes simplex virus type 2 (HSV-2). Nature of the assay: Antiviral activity against HSV-2, viral plaque reduction (ED50). As to conditions: 50 PFU. Format: cell-based. On the procedure:
Infected cells were treated with different concentrations of MMdCyd and the concentration required to reduce viral plaque formation by 50%, i.e. ED50, was determined.
^a ED50 : Concentration required to reduce viral plaque formatio
The antiviral activity of MMdCyd in the presence of H4 dUrd was determined against several strains of HSV-1 and HSV-2.
^a Antiviral assays were carried out using Vero cells. Virus input 50
^b ED50 : Concentration required to reduce viral plaque formatio

Take `COCc1cn([C@H]2C[C@H](O)[C@@H](CO)O2)c(=O)nc1N` [MMdCyd, 5-methoxymethyl-2'-deoxycytidine]: in assay [1], the dATP pool was 25.2 ± 0.49 .rho.moles/10^6 cells, the dCTP pool is recorded as 29.6 ± 1.85 .rho.moles/10^6 cells, the dGTP pool is reported as 72.6 ± 2.07 .rho.moles/10^6 cells and the dTTP pool is reported as 1072 ± 11.2 .rho.moles/10^6 cells. The compound further had a pEC50 in assay [2] (HSV-2 333, Vero) of 3.76. In assay [2] (HSV-2 MS, Vero), this compound showed a pEC50 of 3.64. This compound also showed a pEC50 in assay [2] (HSV-2 X-265, Vero) of 3.89.
